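48-hour exposure; five concentrations; linearly interpolated endpoints. At the GI50, growth is halved.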 Activity calls are given as the source filed them. No stated cut-off is given here; in the data, active = GI50 up to about 1.1 µM and inactive = higher.
Assays:
Assay in all cases: inhibition of tumour cell growth, NCI panel, 48 h
SK-MEL-5 = test system: SK-MEL-5
SNB-75 = test system: SNB-75
M14 = test system: M14
MOLT-4 = test system: MOLT-4
NCI-H522 = test system: NCI-H522
SN12C = test system: SN12C
TK-10 = test system: TK-10
OVCAR-4 = test system: OVCAR-4
NCI-H460 = test system: NCI-H460
RXF 393 = test system: RXF 393
SK-OV-3 = test system: SK-OV-3
LXFL 529 = test system: LXFL 529
OVCAR-5 = test system: OVCAR-5
HCT-116 = test system: HCT-116
DLD-1 = test system: DLD-1
NCI-H226 = test system: NCI-H226
SR = test system: SR
HOP-62 = test system: HOP-62
HCC 2998 = test system: HCC 2998
A549 = test system: A549
CAKI-1 = test system: CAKI-1
786-0 = test system: 786-0
COLO 205 = test system: COLO 205
OVCAR-3 = test system: OVCAR-3
Malme-3M = test system: Malme-3M
HL-60 = test system: HL-60
OVCAR-8 = test system: OVCAR-8
A498 = test system: A498
U-251 = test system: U-251
EKVX = test system: EKVX
SK-MEL-28 = test system: SK-MEL-28
IGROV-1 = test system: IGROV-1
SF-295 = test system: SF-295
UACC-62 = test system: UACC-62
CCRF-CEM = test system: CCRF-CEM
RXF 631 = test system: RXF 631
SW-620 = test system: SW-620
KM-20L2 = test system: KM-20L2
HCT-15 = test system: HCT-15
SNB-78 = test system: SNB-78
DMS-114 = test system: DMS-114
NCI-H23 = test system: NCI-H23
RPMI-8226 = test system: RPMI-8226
HOP-92 = test system: HOP-92
UO-31 = test system: UO-31
LOX IMVI = test system: LOX IMVI
KM12 = test system: KM12
M19-MEL = test system: M19-MEL
DMS-273 = test system: DMS-273
SF-539 = test system: SF-539
HT-29 = test system: HT-29
UACC-257 = test system: UACC-257
K562 = test system: K562
SNB-19 = test system: SNB-19
ACHN = test system: ACHN
SF-268 = test system: SF-268
SK-MEL-2 = test system: SK-MEL-2

SMILES: CN1C(c2ccccc2)CC(C)(O)CC1c1ccccc1 (configuration not stated)
- GI50 (SK-MEL-5): > 100 µM (inactive)
- GI50 (SNB-75): > 100 µM (inactive)
- GI50 (M14): > 100 µM (inactive)
- GI50 (MOLT-4): > 100 µM (inactive)
- GI50 (NCI-H522): > 100 µM (inactive)
- GI50 (SN12C): > 100 µM (inactive)
- GI50 (TK-10): > 100 µM (inactive)
- GI50 (OVCAR-4): > 100 µM (inactive)
- GI50 (NCI-H460): > 100 µM (inactive)
- GI50 (RXF 393): > 100 µM (inactive)
- GI50 (SK-OV-3): > 100 µM (inactive)
- GI50 (LXFL 529): > 100 µM (inactive)
- GI50 (OVCAR-5): > 100 µM (inactive)
- GI50 (HCT-116): > 100 µM (inactive)
- GI50 (DLD-1): > 100 µM (inactive)
- GI50 (NCI-H226): > 100 µM (inactive)
- GI50 (SR): > 100 µM (inactive)
- GI50 (HOP-62): > 100 µM (inactive)
- GI50 (HCC 2998): > 100 µM (inactive)
- GI50 (A549): > 100 µM (inactive)
- GI50 (CAKI-1): > 100 µM (inactive)
- GI50 (786-0): > 100 µM (inactive)
- GI50 (COLO 205): > 100 µM (inactive)
- GI50 (OVCAR-3): > 100 µM (inactive)
- GI50 (Malme-3M): > 100 µM (inactive)
- GI50 (HL-60): 99.5 µM (inactive)
- GI50 (OVCAR-8): > 100 µM (inactive)
- GI50 (A498): > 100 µM (inactive)
- GI50 (U-251): > 100 µM (inactive)
- GI50 (EKVX): > 100 µM (inactive)
- GI50 (SK-MEL-28): > 100 µM (inactive)
- GI50 (IGROV-1): > 100 µM (inactive)
- GI50 (SF-295): > 100 µM (inactive)
- GI50 (UACC-62): > 100 µM (inactive)
- GI50 (CCRF-CEM): > 100 µM (inactive)
- GI50 (RXF 631): > 100 µM (inactive)
- GI50 (SW-620): > 100 µM (inactive)
- GI50 (KM-20L2): > 100 µM (inactive)
- GI50 (HCT-15): > 100 µM
- GI50 (SNB-78): > 100 µM (inactive)
- GI50 (DMS-114): > 100 µM (inactive)
- GI50 (NCI-H23): > 100 µM (inactive)
- GI50 (RPMI-8226): > 100 µM (inactive)
- GI50 (HOP-92): > 100 µM (inactive)
- GI50 (UO-31): > 100 µM (inactive)
- GI50 (LOX IMVI): > 100 µM (inactive)
- GI50 (KM12): > 100 µM (inactive)
- GI50 (M19-MEL): > 100 µM (inactive)
- GI50 (DMS-273): > 100 µM (inactive)
- GI50 (SF-539): > 100 µM (inactive)
- GI50 (HT-29): > 100 µM (inactive)
- GI50 (UACC-257): > 100 µM (inactive)
- GI50 (K562): > 100 µM (inactive)
- GI50 (SNB-19): > 100 µM (inactive)
- GI50 (ACHN): > 100 µM (inactive)
- GI50 (SF-268): > 100 µM (inactive)
- GI50 (SK-MEL-2): > 100 µM (inactive)

— ChEMBL document CHEMBL1201862, “PubChem BioAssay data set” (2004)
